{"source": "patent US20240316073A1", "about": "“CANNABIDIOLIC ACID ESTERS FOR TREATING PRADER-WILLI SYNDROME” (EPM (IP), Inc., priority 2021, published 2024)", "key": {"[1]": {"conditions": "cited from earlier work"}, "rats [2]": {"test_system": "rats", "conditions": "compared with CBDA, 5-HT1A receptor-dependent; cited from earlier work"}, "DIO mice": {"test_system": "DIO mice", "assay": "Serum biochemistry and hepatic lipid content in HFD-fed obese mice, genotype not distinguished (WT or PWS model)", "assay_type": "in vivo", "from_the_text": "(§1) The experimental protocol used was approved by the Institutional Animal Care and Use Committee of the Hebrew University, Israel, which is an AAALAC International accredited institute. Male 6-week-old Magel2^null mice and their wild-type littermate controls were maintained under a 12-h light/dark cycle and fed ad libitum. To generate diet-induced obesity, the mice were fed either a high-fat diet (HFD) (60% of calories from fat, 20% from protein, and 20% from carbohydrates; Research Diet, D12492) or a standard laboratory diet (STD, 14% fat, 24% protein, 62% carbohydrates; NIH-31 rodent diet) for 14-16 weeks. Then, HFD-fed obese mice received vehicle (1% Tween80, 4% DMSO, 95% Saline) or CBDA-ME (20 or 40 mg/kg) daily for 28 days by intraperitoneal (ip) injections. Age-matched control mice on STD received vehicle daily.\nBlood biochemistry—Serum levels of cholesterol, triglycerides (TG), high-density lipoprotein (HDL), low-density lipoprotein (LDL), glucose, alanine aminotransferase (ALT), aspartate aminotransferase (AST), and alkaline phosphatase (ALP) were determined using the Cobas C-111 chemistry analyzer (Roche, Switzerland). Fasting blood glucose was measured using the Contour glucometer.\nHepatic lipid content—Liver tissues were extracted and their triglyceride and cholesterol contents were determined using the Cobas C-111 chemistry analyzer (Roche, Switzerland) or the EnzyChrom™ Triglyceride assay kit (BioAssay Systems, Hayward CA, USA).\nHistopathology—First, 5 μm paraffin-embedded liver sections from 5 animals per group were stained with hematoxylin-eosin staining. Liver images were captured with a Zeiss AxioCam ICc5 color camera (Carl Zeiss AG, Jena, Germany) mounted on a Zeiss Axio Scope.A1 light microscope (Carl Zeiss AG, Jena, Germany) and taken from 10 random 40× fields of each animal.\n(§2) Statistical Methods—Results in multiple groups and time-dependent variables were compared by ANOVA followed by Tukey post-hoc test. Significance was set at P<0.05 using the following signs: *P<0.05 relative to STD-Veh; #P<0.05 relative to HFD-Veh; ^P<0.05 relative to HFD-20 mg/kg of CBDA-ME."}, "Magel2^null mice [3]": {"test_system": "Magel2^null mice", "assay": "PWS preventive model: Magel2-null mice on standard diet treated for 18 weeks", "assay_type": "in vivo", "conditions": "STD diet, 20 mg/kg/day IP", "description": "The aim of the second study was to evaluate whether EPM301 treatment has an impact on body weight gain and adiposity in a mouse model of PWS.\nMale 6-week-old Magel2^null mice and their wild-type littermate controls were maintained under a 12-h light/dark cycle and fed ad libitum a standard laboratory diet (STD, 14% fat, 24% protein, 62% carbohydrates; NIH-31 rodent diet).\nMagel2^null mice were either treated with EPM301 20 mg/kg/day or with vehicle (1% Tween80, 4% DMSO, 95% Saline). WT siblings were treated with vehicle. All treatments were given for 18 weeks by intraperitoneal (IP) injections."}, "Magel2^null mice [4]": {"test_system": "Magel2^null mice", "assay": "Magel2-null mouse model of Prader-Willi Syndrome, HFD-induced obesity, CBDA-ME treatment", "assay_type": "in vivo", "from_the_text": "A Magel2-null mice model of Prader-Willi Syndrome was used to examine the effects of CBDA-ME treatment.\nas §1\n(§3) Body weight was monitored daily. Total body fat and lean masses were determined by EchoMRI-100H™ (Echo Medical Systems LLC, Houston, TX, USA). At weeks 20-22, the mice were euthanized by a cervical dislocation under deep anesthesia. The brain, kidneys, liver, fat pads, pancreas and muscles were removed, and the liver and kidney were also weighed. The samples were either snap-frozen or fixed in buffered 4% formalin. Trunk blood was collected for determining the biochemical parameters.\n(§4) Multi-parameter metabolic assessment—Metabolic profile of the mice was assessed by using the Promethion High-Definition Behavioral Phenotyping System (Sable Instruments, Inc., Las Vegas, NV, USA). Data acquisition and instrument control were performed using MetaScreen software version 2.2.18.0, and the obtained raw data were processed using ExpeData version 1.8.4 using an analysis script detailing all aspects of data transformation. Mice with free access to food and water (which were continuously measured) were subjected to a standard 12 h light/12 h dark cycle, which consisted of a 24 h acclimation period followed by 24 h of sampling. Respiratory gases were measured by using the GA-3 gas analyzer (Sable Systems, Inc., Las Vegas, NV, USA) using a pull-mode, negative-pressure system. Air flow was measured and controlled by FR-8 (Sable Systems, Inc., Las Vegas, NV, USA), with a set flow rate of 2000 mL/min. Water vapor was continuously measured and its dilution effect on O2 and CO2 was mathematically compensated. Effective body mass was calculated by ANCOVA. Fat oxidation (FO) and carbohydrate oxidation (CHO) were calculated as FO=1.69×VO2−1.69×VCO2 and CHO=4.57×VCO2−3.23×VO2 and expressed as g/d/kg^eff.Mass. […]\nas §2\n(§5) The metabolic profile of CBDA-ME was examined in mice with diet-and genetic-induced obesity (DIO, GIO). Male Magel2^null mice and their wild-type littermate controls fed a high-fat diet (HFD) for 14-16 weeks became obese and then started treatment with daily ip injections of vehicle, or CBDA-ME (20 mg/kg/d or 40 mg/kg/d) for 28 days. Age-and sex-matched mice on STD served as controls."}, "rat models": {"test_system": "rat models", "conditions": "oral ingestion, 1 mg/kg, two rat models; cited from earlier work"}, "rats [5]": {"test_system": "rats", "conditions": "compared with CBDA, 5-HT1A receptor-dependent; cited from earlier work", "remark": "listed apart in the source"}, "WT mice": {"test_system": "WT mice", "assay": "Wild-type littermate controls with HFD diet-induced obesity, CBDA-ME treatment", "assay_type": "in vivo", "from_the_text": "as §1, §3, §4\nGlucose tolerance test (ipGTT) and insulin tolerance test (ipITT)-Mice that fasted overnight were injected with glucose (1.5 g/kg, ip), followed by a tail blood collection at 0, 15, 30, 45, 60, 90, and 120 minutes. Blood glucose levels were determined using the Contour glucometer (Bayer, Pittsburgh, PA). The following day, mice underwent fasting for 6 h before receiving insulin (0.75 U/kg, ip; Eli Lilly), and blood glucose levels were determined at the same intervals as above. […]\nas §2, §5"}, "[6]": {"conditions": "20 or 40 mg/kg ip, 28 days, more prominent at the higher dose"}, "[7]": {"conditions": "HFD-fed obese, 20 or 40 mg/kg/d ip, 28 days"}}, "note": "“Also recorded” adds a separate entry of the source.", "data": [{"smiles": "C=C(C)[C@@H]1CCC(C)=C[C@H]1c1c(O)cc(CCCCC)c(C(=O)O)c1O", "note": "[CBDA, cannabidiolic acid]", "values": [{"measurement": "stability (decarboxylation into CBD enhanced by heat)", "setting": "[1]", "result": "relative instability"}]}, {"smiles": "C=C(C)C1CCC(C)=C[C@H]1c1c(O)cc(CCCCC)c(C(=O)OC)c1O", "note": "(some centres unmarked) [CBDA-ME, cannabidiolic acid methyl ester]", "values": [{"measurement": "suppressing signs of acute and anticipatory nausea", "setting": "rats [2]", "result": "greater potency than CBDA"}, {"measurement": "obesity related hepatocellular injury: serum ALT", "setting": "DIO mice; 40 mg/kg", "result": "reduction"}, {"measurement": "obesity related hepatocellular injury: serum AST", "setting": "DIO mice; 40 mg/kg", "result": "reduction"}, {"measurement": "serum HDL", "setting": "DIO mice; 20 or 40 mg/kg ip, 28 days", "result": "no effect"}, {"measurement": "HFD-induced hypercholesterolemia (serum cholesterol)", "setting": "DIO mice; [6]", "result": "reduced"}, {"measurement": "ratio between HDL-to-LDL", "setting": "DIO mice; [6]", "result": "increased"}, {"measurement": "serum LDL", "setting": "DIO mice; [6]", "result": "reduced"}, {"measurement": "ALP levels", "setting": "DIO mice; HFD", "result": "No major changes"}, {"measurement": "HFD-induced hepatic steatosis (hepatic triglyceride and cholesterol levels, fat vacuoles in the liver)", "setting": "DIO mice; HFD", "result": "attenuated"}, {"measurement": "change in the body weight versus WT controls and vehicle-treated Magel2^null mice", "setting": "Magel2^null mice [3]", "result": "significantly lower"}, {"measurement": "fat mass versus WT control mice", "setting": "Magel2^null mice [3]", "result": "similar"}, {"measurement": "lean mass versus WT control mice", "setting": "Magel2^null mice [3]", "result": "similar"}, {"measurement": "fat mass versus vehicle-treated Magel2^null mice", "setting": "Magel2^null mice [3]; listed as EPM301, 20 mg/kg/day", "result": "lower fat mass; also recorded: prevented"}, {"measurement": "lean mass versus vehicle-treated Magel2^null mice", "setting": "Magel2^null mice [3]; listed as EPM301, 20 mg/kg/day", "result": "significantly higher; also recorded: increased lean mass"}, {"measurement": "weight gain versus vehicle-treated Magel2^null mice", "setting": "Magel2^null mice [3]; listed as EPM301, 20 mg/kg/day", "result": "lower; also recorded: prevented weight gain"}, {"measurement": "food intake and hyperphagia", "setting": "Magel2^null mice [4]; HFD", "result": "inhibit; also recorded: significantly reduced"}, {"measurement": "reduced ambulatory activity", "setting": "Magel2^null mice [4]; HFD", "result": "restored"}, {"measurement": "increased adiposity", "setting": "Magel2^null mice [4]; [7]", "result": "reduced by CBDA-ME in both doses"}, {"measurement": "overweight (body weight)", "setting": "Magel2^null mice [4]; [7]", "result": "reduced by CBDA-ME in both doses; also recorded: significantly reduced; also recorded: effectively reduced"}, {"measurement": "insulin sensitivity (ipITT)", "setting": "Magel2^null mice [4]; HFD, 40 mg/kg", "result": "slightly improved"}, {"measurement": "obesity-induced glucose intolerance (ipGTT)", "setting": "Magel2^null mice [4]; HFD, 20 or 40 mg/kg", "result": "found effective in Magel2^null mice in both doses tested"}, {"measurement": "fasting blood glucose levels", "setting": "Magel2^null mice [4]; HFD, chronic treatment", "result": "reduced"}, {"measurement": "carbohydrate oxidation", "setting": "Magel2^null mice [4]; HFD, indirect calorimetry", "result": "downregulating"}, {"measurement": "fat oxidation", "setting": "Magel2^null mice [4]; HFD, indirect calorimetry", "result": "further upregulating"}, {"measurement": "anti-depressant effect", "setting": "rat models", "result": "potent anti-depressant effect"}, {"measurement": "suppressing signs of stress-induced anxiety", "setting": "rats [5]", "result": "greater potency than CBDA"}, {"measurement": "food intake and hyperphagia", "setting": "WT mice; HFD", "result": "not observed"}, {"measurement": "reduced ambulatory activity", "setting": "WT mice; HFD", "result": "restored"}, {"measurement": "increased adiposity", "setting": "WT mice; [7]", "result": "only observed in the higher dose of 40 mg/kg"}, {"measurement": "overweight (body weight)", "setting": "WT mice; [7]", "result": "only observed in the higher dose of 40 mg/kg; also recorded: only the higher dose was found effective"}, {"measurement": "insulin sensitivity (ipITT)", "setting": "WT mice; HFD, 40 mg/kg", "result": "slightly improved"}, {"measurement": "obesity-induced glucose intolerance (ipGTT)", "setting": "WT mice; HFD, 40 mg/kg", "result": "this effect was observed"}, {"measurement": "lean body mass percentage", "setting": "WT mice; HFD, 40 mg/kg ip, 28 days", "result": "significant increase"}, {"measurement": "fasting blood glucose levels", "setting": "WT mice; HFD, chronic treatment", "result": "only in Magel2^null mice"}, {"measurement": "carbohydrate oxidation", "setting": "WT mice; HFD, indirect calorimetry", "result": "upregulated"}, {"measurement": "utilization of fat (fat oxidation)", "setting": "WT mice; HFD, indirect calorimetry", "result": "downregulated"}, {"measurement": "parameters measured overall", "setting": "WT mice; WT DIO mice, 40 mg/kg", "result": "improvements in almost all parameters measured"}]}]}
